Results as given in US8987249B2, “Substituted 2-Aza-bicyclo[2.2.1]heptane-3-carboxylic acid (benzyl-cyano-methyl)-amides inhibitors of Cathepsin C” (Boehringer Ingelheim International GmbH, priority 2013, dated 2015).

How the values were obtained:
[1] = target: recombinant human DPPI (Cathepsin C) (Homo sapiens (Human), UniProt P53634); assay: Inhibition of human DPPI (Cathepsin C); assay type: biochemical; settings: substrate Gly-Arg-AMC
Procedure, shortened: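 Fluorescence read after 30 min room-temperature turnover of 50 μM (final) substrate by recombinant human cathepsin C, pH 6.0 MES/NaCl/DTT/BSA buffer, quenched by Gly-Phe-DMK (1 μM final). Activity as percent of vehicle after background subtraction, used for IC50.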

[2] = target: recombinant human Cathepsin K (Homo sapiens (Human), UniProt P43235); assay: Inhibition of human Cathepsin K; assay type: biochemical; settings: substrate Z-Gly-Pro-Arg-AMC
Sequence of recombinant human Cathepsin K (P43235 115-329): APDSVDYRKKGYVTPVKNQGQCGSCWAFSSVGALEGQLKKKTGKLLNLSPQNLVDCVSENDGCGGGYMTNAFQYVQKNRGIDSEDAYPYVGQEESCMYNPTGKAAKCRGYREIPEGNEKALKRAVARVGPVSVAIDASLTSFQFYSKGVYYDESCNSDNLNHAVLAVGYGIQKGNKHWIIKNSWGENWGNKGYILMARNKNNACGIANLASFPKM
Procedure, shortened: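 Fluorogenic Z-Gly-Pro-Arg-AMC cleavage, 60 min at room temperature, after a 10 min enzyme–compound preincubation (enzyme 2 ng/μL; compound 0.1 nM–100 μM; 1% DMSO). Buffer pH 5.5 with sodium acetate, EDTA and L-cysteine; procathepsin first activated 30 min at pH 3.5. E64 (1 μM) stop; IC50 derived from percent of vehicle signal minus background (Ex 360/Em 460 nm).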

[3] = Determination of metabolic stability with human liver microsomes; settings: pooled human liver microsomes; for half-life at 1 μM: human, pH 7.6

Sequence of recombinant human DPPI (Cathepsin C) (P53634 231-394): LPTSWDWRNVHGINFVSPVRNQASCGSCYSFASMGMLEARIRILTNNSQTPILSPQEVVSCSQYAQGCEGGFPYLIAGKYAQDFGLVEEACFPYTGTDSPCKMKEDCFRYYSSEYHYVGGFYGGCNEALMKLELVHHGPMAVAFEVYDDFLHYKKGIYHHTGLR
Sequence of recombinant human DPPI (Cathepsin C) (P53634 395-463): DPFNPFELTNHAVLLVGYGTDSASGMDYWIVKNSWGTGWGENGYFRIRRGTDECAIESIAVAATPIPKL
Sequence of recombinant human DPPI (Cathepsin C) (P53634 25-134): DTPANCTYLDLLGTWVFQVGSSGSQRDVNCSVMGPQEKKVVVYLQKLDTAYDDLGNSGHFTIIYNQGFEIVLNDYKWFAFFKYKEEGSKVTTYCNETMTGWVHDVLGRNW

Compound | IC50 [1] | IC50 [2] | half-life at 1 μM [3] | In vitro stability in human liver microsome incubations t½ ([3]; 1 μM test compound, 37° C., NADPH)
CN1C(=O)Cc2ccc(-c3ccc(C[C@@H](C#N)NC(=O)[C@H]4N[C@@H]5CC[C@H]4C5)c(F)c3F)cc21 [Example 24] | 3.7 nM | 13300 nM | 1.83 h | 
CN1C(=O)C(=O)c2ccc(-c3ccc(C[C@@H](C#N)NC(=O)[C@H]4N[C@@H]5CC[C@H]4C5)c(F)c3)cc21 [Example 10] | 1.5 nM | 2700 nM | > 2.17 h | 
CN(C)C1CCCN(c2ccc(C[C@@H](C#N)NC(=O)[C@H]3N[C@@H]4CC[C@H]3C4)c(F)c2)C1 (stereo partly drawn) [Example 344, (1S,2S,4R)—N-[(1S)-1-cyano-2-[4-[3-(dimethylamino)-1-piperidyl]-2-fluoro-phenyl]ethyl]-3-azabicyclo[2.2.1]heptane-2-carboxamide] | 10 nM | 6200 nM | 1.83 h | 
N#C[C@H](Cc1ccc(-c2ccc(C(=O)N3CCOCC3)o2)cc1F)NC(=O)[C@H]1N[C@@H]2CC[C@H]1C2 [Example 288] | 2.3 nM | 2200 nM | > 2.17 h | 
CCN1CCC(c2ccc(C[C@@H](C#N)NC(=O)[C@H]3N[C@@H]4CC[C@H]3C4)c(F)c2)CC1 [Example 201] | 20.1 nM | 2500 nM | > 2.17 h | 
N#CC(Cc1cc2c(=O)[nH]c3ccc(F)cc3c2cc1F)NC(=O)[C@H]1N[C@@H]2CC[C@H]1C2 (stereo partly drawn) [Example 295] | 2.1 nM | 4700 nM | > 2.17 h | 
CS(=O)(=O)Nc1ccc(-c2ccc(CC(C#N)NC(=O)[C@H]3N[C@@H]4CC[C@H]3C4)c(F)c2)cc1 (stereo partly drawn) [Example 62] | 9.1 nM | 3900 nM | > 2.17 h | 
N#C[C@H](Cc1ccc(-c2ccc(C(F)(F)F)s2)cc1F)NC(=O)[C@H]1N[C@@H]2CC[C@H]1C2 [Example 33] | 4.5 nM | 4800 nM | > 2.17 h | 
N#C[C@H](Cc1cc2c(=O)[nH]c3cc(F)ccc3c2cc1F)NC(=O)[C@H]1N[C@@H]2CC[C@H]1C2 [Example 323] | 0.8 nM | 900 nM | > 2.17 h | 
CCOCc1cn(-c2ccc(C[C@@H](C#N)NC(=O)[C@H]3N[C@@H]4CC[C@H]3C4)c(F)c2)nn1 [Example 105] | 25 nM | 5200 nM | > 2.17 h | 
N#CC(Cc1ccc(-c2ccc3c(c2)NC(=O)C3)cc1F)NC(=O)[C@H]1N[C@@H]2CC[C@H]1C2 (stereo partly drawn) [Example 22] | 3.3 nM | 3200 nM | > 2.17 h | 
CC(C)C(O)Cc1cn(-c2ccc(C[C@@H](C#N)NC(=O)[C@H]3N[C@@H]4CC[C@H]3C4)c(F)c2)nn1 (stereo partly drawn) [Example 109] | 26.9 nM | 4500 nM | > 2.17 h | 
CS(=O)(=O)c1ccc(-c2ccc(C[C@@H](C#N)NC(=O)[C@H]3N[C@@H]4CC[C@H]3C4)c(F)c2)cc1C#N [Example 159] | 1.6 nM | 3300 nM | > 2.17 h | 
N#C[C@H](Cc1ccc(-c2ccc3c(c2)NC(=O)C3)c(F)c1F)NC(=O)[C@H]1N[C@@H]2CC[C@H]1C2 [Example 181] | 8.6 nM | 9700 nM | > 2.17 h | 
N#CC(Cc1ccc(-c2cnn(-c3ccccc3)c2)cc1F)NC(=O)[C@H]1N[C@@H]2CC[C@H]1C2 (stereo partly drawn) [Example 78] | 12 nM | 6700 nM |  | 2.17 h
CNc1nc2cc(-c3ccc(C[C@@H](C#N)NC(=O)[C@H]4N[C@@H]5CC[C@H]4C5)c(F)c3)ccc2n1C [Example 253] | 11 nM | 5700 nM | > 2.17 h | 
N#C[C@H](Cc1ccc(C2=CCN3CCOCC3C2)cc1F)NC(=O)[C@H]1N[C@@H]2CC[C@H]1C2 (stereo partly drawn) [Example 281] | 3.3 nM | 1900 nM | > 2.17 h | 
COCCn1cc(-c2ccc(CC(C#N)NC(=O)[C@H]3N[C@@H]4CC[C@H]3C4)c(F)c2)cn1 (stereo partly drawn) [Example 97] |  | 7900 nM | > 2.17 h | 
COCCN1C(=O)Cc2ccc(-c3ccc(C[C@@H](C#N)NC(=O)[C@H]4N[C@@H]5CC[C@H]4C5)c(F)c3)cc21 [Example 158] | 1.5 nM | 9400 nM | > 2.17 h | 

Compound | IC50 [1] | IC50 [2] | half-life at 1 μM [3] | In vitro stability in human liver microsome incubations t½ ([3]; 1 μM test compound, 37° C., NADPH)
N#C[C@H](Cc1ccc(-n2cc(CCN3CCOCC3)nn2)cc1F)NC(=O)[C@H]1N[C@@H]2CC[C@H]1C2 [Example 99] | 21.1 nM | 2900 nM | > 2.17 h | 
CN1C(=O)Cc2ccc(-c3cc(F)c(C[C@@H](C#N)NC(=O)[C@H]4N[C@@H]5CC[C@H]4C5)cc3F)cc21 [Example 31] | 4.3 nM | 7300 nM | 1.5 h | 
N#C[C@H](Cc1ccc(N2CCN(CC3CCCO3)CC2)cc1F)NC(=O)[C@H]1N[C@@H]2CC[C@H]1C2 (stereo partly drawn) [Example 154] | 13.5 nM | 4600 nM | > 2.17 h | 
N#C[C@H](Cc1ccc(-c2csc(C(=O)NC3CCOCC3)c2)cc1F)NC(=O)[C@H]1N[C@@H]2CC[C@H]1C2 [Example 235] | 4.7 nM | 3000 nM | > 2.17 h | 
N#C[C@H](Cc1ccc(-c2cnn(CC3CCCCO3)c2)cc1F)NC(=O)[C@H]1N[C@@H]2CC[C@H]1C2 (stereo partly drawn) [Example 28] | 4.1 nM | 2700 nM | > 2.17 h | 
N#C[C@H](Cc1ccc(-n2cc(C(F)(F)F)cn2)cc1F)NC(=O)[C@H]1N[C@@H]2CC[C@H]1C2 [Example 285] |  | 8700 nM | > 2.17 h | 
N#C[C@H](Cc1ccc(N2CCN(C3CCOC3)CC2)cc1F)NC(=O)[C@H]1N[C@@H]2CC[C@H]1C2 (stereo partly drawn) [Example 331] |  | 1500 nM | > 2 h | 
COCCn1cc(-c2ccc(C[C@@H](C#N)NC(=O)[C@H]3N[C@@H]4CC[C@H]3C4)c(F)c2)cn1 [Example 44] |  | 4000 nM | > 2.17 h | 
N#C[C@H](Cc1ccc(-c2cnc3n2CCC3)cc1F)NC(=O)[C@H]1N[C@@H]2CC[C@H]1C2 [Example 221] | 3.7 nM |  | > 2.17 h | 
Cn1c(=O)c2cc(CC(C#N)NC(=O)[C@H]3N[C@@H]4CC[C@H]3C4)ccc2c2ccc(Cl)cc21 (stereo partly drawn) [Example 305, (1S,2S,4R)—N-[2-(3-chloro-5-methyl-6-oxo-phenanthridin-8-yl)-1-cyano-ethyl]-3-azabicyclo[2.2.1]heptane-2-carboxamide] | 6.9 nM |  | 1.52 h | 
N#C[C@H](Cc1ccc(N2CC3(CNC3)C2)cc1F)NC(=O)[C@H]1N[C@@H]2CC[C@H]1C2 [Example 327] | 3.4 nM |  | > 2.17 h | 
N#C[C@H](Cc1ccc(-n2cccn2)cc1F)NC(=O)[C@H]1N[C@@H]2CC[C@H]1C2 [Example 180] | 7.7 nM |  | > 2 h | 
N#CC(Cc1ccc2c(c1)c(=O)[nH]c1ccccc12)NC(=O)[C@H]1N[C@@H]2CC[C@H]1C2 (stereo partly drawn) [Example 9, (1S,2S,4R)—N-[1-cyano-2-(6-oxo-5H-phenanthridin-8-yl)ethyl]-3-azabicyclo[2.2.1]heptane-2-carboxamide] | 9.6 nM |  | > 2 h | 
CN1Cc2cc(-c3ccc(C[C@@H](C#N)NC(=O)[C@H]4N[C@@H]5CC[C@H]4C5)c(F)c3)ccc2S1(=O)=O [Example 169] |  | 5200 nM | > 2.17 h | 
CNc1nc2cc(-c3ccc(C[C@@H](C#N)NC(=O)[C@H]4N[C@@H]5CC[C@H]4C5)c(F)c3)ccc2[nH]1 [Example 347] | 8.5 nM |  | > 2.17 h | 
CS(=O)(=O)c1cc(-c2ccc(C[C@@H](C#N)NC(=O)[C@H]3N[C@@H]4CC[C@H]3C4)c(F)c2F)ccc1C#N [Example 183] | 8.8 nM |  | > 2.17 h | 
N#C[C@H](Cc1ccc([C@@H]2CCN3CCOC[C@H]3C2)cc1F)NC(=O)[C@H]1N[C@@H]2CC[C@H]1C2 [Example 283] |  | 3600 nM | > 2.17 h | 
N#C[C@H](Cc1ccc(N2CCC3C(=O)NCCC3C2)cc1F)NC(=O)[C@H]1N[C@@H]2CC[C@H]1C2 (stereo partly drawn) [Example 248] | 18 nM |  | > 2.17 h | 
N#CC(Cc1ccc2c(c1)c(=O)[nH]c1c(C(=O)NC3CC3)cccc12)NC(=O)[C@H]1N[C@@H]2CC[C@H]1C2 (stereo partly drawn) [Example 341] | 7.6 nM |  | > 2.17 h | 
